Data reported in US20090036444A1, “5-5-Membered fused heterocyclic compound and use thereof as HCV polymerase inhibitor” (priority 2003, published 2009).
Counter-ions that a name gives are not always drawn. Like-named read-outs stand apart in the source and are kept apart here.

How the values were obtained:
[1] = target: T1, HCV polymerase H544 1a 3X (UniProt P27958); assay: Assay of enzyme (HCV polymerase) inhibitory activity, H544 1a 3X; type: biochemical
T1 construct: fused on or other part: 6 His tag at the C-terminus, for the BK (1b) enzyme

[2] = target: T2, HCV polymerase H544 1b 3X (Hepatitis C virus genotype 1b, UniProt P26663); assay: Assay of enzyme (HCV polymerase) inhibitory activity, H544 1b 3X; type: biochemical, HCV BK strain
T2 construct: a region encoding NS5B (J Virol 1991 March, 65(3), 1105-13, 544 amino acids after deletion of 47 amino acids on the C-terminal); 6 His (C); made in house; host or cells: Escherichia coli
Excerpt: The evaluation of the HCV polymerase inhibitory activity of the compound of the present invention is explained in the following. This polymerase is an enzyme coded for by the non-structural protein region called NS5B on the genome RNA of HCV (EMBO J., 15:12-22, 1996).
Using, as a template, a cDNA clone corresponding to the full length genome RNA of HCV BK strain obtained from the blood of a patient with hepatitis C, a region encoding NS5B (J Virol 1991 March, 65(3), 1105-13, 544 amino acids after deletion of 47 amino acids on the C-terminal) was amplified by PCR. The objective gene was prepared by adding a 6 His tag {base pair encoding 6 continuous histidine (His)} to the 3′ end thereof and transformed to Escherichia coli. The Escherichia coli capable of producing the objective protein was cultured. The obtained cells were suspended in a buffer solution and crushed in a microfluidizer. The supernatant was obtained by centrifugation and applied to various column chromatographys {mono-S, Sephacryl S-200 (Pharmacia)}, inclusive of metal chelate chromatography, to give a standard enzyme product.
Using a synthetic primer designed based on the sequence of HCV genomic 3′ untranslated region, a DNA fragment (148 bp) containing polyU and 3′X sequence was entirely synthesized and cloned into plasmid pBluescript SK II (+) (Stratagene). The cDNA encoding full length NS5B, which was prepared in i) above, was digested with restriction enzyme KpnI to give a cDNA fragment containing the nucleotide sequence of from the restriction enzyme cleavage site to the termination codon. This cDNA fragment was inserted into the upstream of 3′ untranslated region of the DNA in pBluescript SK II(+) and ligated. The about 450 bp inserted DNA sequence was used as a template in the preparation of substrate RNA. This plasmid was cleaved immediately after the 3′X sequence, linearized and purified by phenol-chloroform treatment and ethanol precipitation to give DNA.
RNA was synthesized (37° C., 3 hr) by run-off method using this purified DNA as a template, a promoter of pBluescript SK II(+), MEGAscript RNA synthesis kit (Ambion) and T7 RNA polymerase. DNase I was added and the mixture was incubated for 1 hr. The template DNA was removed by decomposition to give a crude RNA product. This crude product was treated with phenol-chloroform and purified by ethanol precipitation to give the objective substrate RNA.
This RNA was applied to formaldehyde denaturation agarose gel electrophoresis to confirm the quality thereof and preserved at −80° C.
A test substance (compound of the present invention) and a reaction mixture (30 μl) having the following composition were reacted at 25° C. for 90 min. 10% Trichloroacetic acid at 4° C. and 1% sodium pyrophosphate solution (150 μl) were added to this reaction mixture to stop the reaction. The reaction mixture was left standing in ice for 15 min to insolubilize RNA. This RNA was trapped on a glass filter (Whatman GF/C and the like) upon filtration by suction. This filter was washed with a solution containing 1% trichloroacetic acid and 0.1% sodium pyrophosphate, washed with 90% ethanol and dried. A liquid scintillation cocktail (Packard) was added and the radioactivity of RNA synthesized by the enzyme reaction was measured on a liquid scintillation counter.
The HCV polymerase inhibitory activity (IC50) of the compound of the present invention was calculated from the values of radioactivity of the enzyme reaction with and without the test substance.
The results are shown in Table 18, wherein each symbol means that IC50 falls within the following range.
Reaction mixture: HCV polymerase (0.5 μg/ml) obtained in i), substrate RNA (5 μg/ml) obtained in ii), ATP (50 μM), GTP (50 μM), CTP (50 μM), UTP (2 μM), [5,6-^3H] UTP (46 Ci/mmol (Amersham), 1 μCi) 20 mM Tris-HCl (pH 7.5), EDTA (1 mM), MgCl2 (5 mM), NaCl (50 mM), DTT (1 mM), BSA (0.01%)

[3] = 25° C., 90 min, [5,6-3H]UTP incorporation, read-out: H544 1a 3X IC50
[4] = read-out: H544 1a 3X IC50, 25° C., 90 min, [5,6-3H]UTP incorporation

T2 sequence (P26663 2420-2963): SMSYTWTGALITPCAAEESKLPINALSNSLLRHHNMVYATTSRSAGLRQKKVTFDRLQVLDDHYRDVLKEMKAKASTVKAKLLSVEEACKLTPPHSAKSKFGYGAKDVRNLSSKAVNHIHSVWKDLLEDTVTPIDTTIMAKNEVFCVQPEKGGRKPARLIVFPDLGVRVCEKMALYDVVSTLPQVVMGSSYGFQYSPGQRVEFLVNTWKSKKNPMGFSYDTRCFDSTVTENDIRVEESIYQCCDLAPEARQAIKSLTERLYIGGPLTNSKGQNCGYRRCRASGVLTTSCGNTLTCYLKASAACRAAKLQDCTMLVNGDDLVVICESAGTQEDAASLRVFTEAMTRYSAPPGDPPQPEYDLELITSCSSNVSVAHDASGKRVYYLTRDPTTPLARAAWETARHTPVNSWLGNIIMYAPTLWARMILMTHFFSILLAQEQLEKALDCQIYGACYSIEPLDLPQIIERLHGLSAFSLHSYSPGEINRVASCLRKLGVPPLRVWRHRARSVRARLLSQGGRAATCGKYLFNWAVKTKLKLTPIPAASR

For `CN(C)C(=O)Cn1c(-c2ccc(OC3CCCN(C(=O)OC(C)(C)C)C3)cc2)c(C2CCCCC2)c2sc(C(=O)O)cc21` (stereo not shown) [Example 37, 5-[4-(1-tert-butoxycarbonylpiperidin-3-yloxy)phenyl]-6-cyclohexyl-4-dimethylcarbamoylmethyl-4H-thieno[3,2-b]pyrrole-2-carboxylic acid], the IC50 [1, 3] was less than 100 nM and the IC50 [2] was less than 100 nM.
Compound `CN(C)C(=O)Cn1c(-c2ccc(Oc3ccccc3)cc2)c(C2CCCCC2)c2sc(C(=O)O)cc21` [Example 42, 6-cyclohexyl-4-dimethylcarbamoylmethyl-5-(4-phenoxyphenyl)-4H-thieno[3,2-b]pyrrole-2-carboxylic acid] has an IC50 [1, 3] of less than 100 nM and an IC50 [2] of less than 100 nM.
In the case of `CCN1CCN(C(=O)Cn2c(-c3ccc(OC)cc3)c(C3CCCCC3)c3sc(C(=O)O)cc32)CC1` [Example 26, 6-cyclohexyl-4-(4-ethylpiperazin-1-yl)carbonylmethyl-5-(4-methoxyphenyl)-4H-thieno[3,2-b]pyrrole-2-carboxylic acid], the IC50 [1, 3] is reported as 100 to 1000 nM and the IC50 [2] is reported as less than 100 nM.
Work on `O=C(O)c1cc2c(s1)c(C1CCCCC1)c(-c1ccc(OCc3ccccc3)cc1)n2CC1CCCCC1` [Example 48, 5-(4-benzyloxyphenyl)-6-cyclohexyl-4-cyclohexylmethyl-4H-thieno[3,2-b]pyrrole-2-carboxylic acid] yielded an IC50 [1, 3] of 100 to 1000 nM and an IC50 [2] of 100 to 1000 nM.
For `CC(=O)N(C)c1ccc(N2CCOCC2)c(COc2ccc(-c3c(C4CCCCC4)c4sc(C(=O)O)cc4n3C)cc2)c1` [Example 17, 5-{4-[5-(N-acetyl-N-methylamino)-2-morpholinobenzyloxy]phenyl}-6-cyclohexyl-4-methyl-4H-thieno[3,2-b]pyrrole-2-carboxylic acid hydrochloride], the IC50 [1, 4] was less than 100 nM and the IC50 [2] was less than 100 nM.
In the case of `CN(CCN1CCOCC1)CCn1c(-c2ccc(OCc3ccccc3)cc2)c(C2CCCCC2)c2sc(C(=O)O)cc21` [Example 58, 5-(4-benzyloxyphenyl)-6-cyclohexyl-4-{2-[N-methyl-N-(2-morpholinoethyl)amino]ethyl}-4H-thieno[3,2-b]pyrrole-2-carboxylic acid dihydrochloride], the IC50 [1, 4] is reported as 100 to 1000 nM and the IC50 [2] is reported as 100 to 1000 nM.
With `Cn1c(-c2ccc(OCc3cc(N4CCCC4=O)ccc3N3CCOCC3)cc2)c(C2CCCCC2)c2sc(C(=O)O)cc21` [Example 15, 6-cyclohexyl-4-methyl-5-{4-[2-morpholino-5-(2-oxopyrrolidin-1-yl)benzyloxy]phenyl}-4H-thieno[3,2-b]pyrrole-2-carboxylic acid hydrochloride] the IC50 [1, 3] was less than 100 nM and the IC50 [2] was less than 100 nM.
Work on `Cn1c(-c2ccc(OCc3cc(NC(=O)CN4CCOCC4)ccc3N3CCOCC3)cc2)c(C2CCCCC2)c2sc(C(=O)O)cc21` [Example 41, 6-cyclohexyl-4-methyl-5-{4-[2-morpholino-5-(2-morpholinoacetylamino)benzyloxy]phenyl}-4H-thieno[3,2-b]pyrrole-2-carboxylic acid dihydrochloride] yielded an IC50 [1, 4] of less than 100 nM and an IC50 [2] of less than 100 nM.
